# Measured values reported in US11136311B2, “Heteroaromatic derivatives as NIK inhibitors” (Janssen Pharmaceutica NV, priority 2016, dated 2021).
# Experiments:
# [1] = target: recombinant human NF-kappaB-inducing kinase (NIK/MAP3K14) (Homo sapiens (Human), UniProt Q99558); test: Inhibition of auto-phosphorylation of recombinant human NIK/MAP3K14 activity (AlphaScreen); type: biochemical; conditions: averaged values over all measurements on all batches
# How it was run: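 AlphaScreen read-out, using anti-phospho-IKK Ser176/180 antibody, tracked NIK autophosphorylation after 1 h at 25° C. Reactions held 0.2 nM GST-NIK, 25 microM ATP and compound in 1% DMSO, Tris pH 7.5 buffer. IC50 fitted sigmoidally to blank-subtracted inhibition data.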
# [2] = test system: P-IKKα levels in L363 cells; test: Effect of compounds on P-IKKα levels in L363 (NIK translocated multiple myeloma) cells; type: cell-based, human; conditions: Homo sapiens, L-363, L363 cells; averaged values; read-out: Inhibition of pIKKα_L-363 (IC50 (nM))
# Experimental: Effect of compounds on P-IKKα levels in L363 (NIK translocated multiple myeloma) cells
# All compounds tested were dissolved in DMSO and further dilutions were made in culture medium. Final DMSO concentration was 1% (v/v) in cell assays. The human L363 cells (ATCC) were cultured in RPMI 1640 medium supplemented with GlutaMax and 10% fetal calf serum (PAA). Cells were routinely maintained at densities of 0.2×10^6 cells per ml-1×10^6 cells per ml at 37° C. in a humidified 5% CO2 atmosphere. Cells were passaged twice a week splitting back to obtain the low density. Cells were seeded in 96 well plates (Nunc 167008) at 2×10^6 per ml media in a volume of 75 μl per well plus 25 μl 1 μg/ml recombinant human B-cell activating factor (BAFF/BLyS/TNFSF13B). Seeded cells were incubated at 37° C. in a humidified 5% CO2 atmosphere for 24 hr. Drugs and/or solvents were added (20 μl) to a final volume of 120 μl. Following 2 hr treatment plates were removed from the incubator and cell lysis was achieved by the addition of 30 μl 5× lysis buffer followed by shaking on a plate shaker at 4° C. for 10 min. At the end of this incubation lysed cells were centrifuged at 800×g for 20 min at 4° C. and the lysate was assessed for P-IKKα levels by sandwich immuno-assay carried out in anti-rabbit antibody coated Mesoscale plates. Within an experiment, the results for each treatment were the mean of 2 replicate wells. For initial screening purposes, compounds were tested using an 8 point dilution curve (serial 1:3 dilutions). For each experiment, controls (containing MG132 and BAFF but no test drug) and a blank incubation (containing MG132 and BAFF and 10 μM ADS125117, a test concentration known to give full inhibition) were run in parallel. The blank incubation value was subtracted from all control and sample values. To determine the IC50 a sigmoidal curve was fitted to the plot of % inhibition of control P-IKKα levels versus Log10 compound concentration.
# JJN-3 cells = test: Antiproliferative activity on JJN-3 (NIK translocated) multiple myeloma cells (CellTiter-Glo); type: cell-based, human; conditions: Homo sapiens, JJN-3, 96 h, JJN-3 (NIK translocated) cells, 96 hr; averaged values; read-out: JJN-3 Proliferation inhibition (IC50 (nM))
# How it was run: (§1)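 Viability was read by CellTiter-Glo after 96 hr compound exposure (9-point, 1:3 serial dilutions; 0.3% DMSO final). JJN-3 and KMS12-BM cells were seeded at 15000 and 20000 per well respectively in RPMI 1640/10% FCS; blank-subtracted signals were given as percent of drug-free controls.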
# KMS12-BM cells = test: Antiproliferative activity on KMS12-BM (NIK WT) multiple myeloma cells (CellTiter-Glo); type: cell-based, human; conditions: Homo sapiens, KMS-12-BM, 96 h, KMS12-BM (NIK WT) cells, 96 hr; averaged values; read-out: KMS-12 Proliferation inhibition (IC50 (nM))
# How it was run: as §1
# Sequence of recombinant human NF-kappaB-inducing kinase (NIK/MAP3K14) (Q99558 whole entry): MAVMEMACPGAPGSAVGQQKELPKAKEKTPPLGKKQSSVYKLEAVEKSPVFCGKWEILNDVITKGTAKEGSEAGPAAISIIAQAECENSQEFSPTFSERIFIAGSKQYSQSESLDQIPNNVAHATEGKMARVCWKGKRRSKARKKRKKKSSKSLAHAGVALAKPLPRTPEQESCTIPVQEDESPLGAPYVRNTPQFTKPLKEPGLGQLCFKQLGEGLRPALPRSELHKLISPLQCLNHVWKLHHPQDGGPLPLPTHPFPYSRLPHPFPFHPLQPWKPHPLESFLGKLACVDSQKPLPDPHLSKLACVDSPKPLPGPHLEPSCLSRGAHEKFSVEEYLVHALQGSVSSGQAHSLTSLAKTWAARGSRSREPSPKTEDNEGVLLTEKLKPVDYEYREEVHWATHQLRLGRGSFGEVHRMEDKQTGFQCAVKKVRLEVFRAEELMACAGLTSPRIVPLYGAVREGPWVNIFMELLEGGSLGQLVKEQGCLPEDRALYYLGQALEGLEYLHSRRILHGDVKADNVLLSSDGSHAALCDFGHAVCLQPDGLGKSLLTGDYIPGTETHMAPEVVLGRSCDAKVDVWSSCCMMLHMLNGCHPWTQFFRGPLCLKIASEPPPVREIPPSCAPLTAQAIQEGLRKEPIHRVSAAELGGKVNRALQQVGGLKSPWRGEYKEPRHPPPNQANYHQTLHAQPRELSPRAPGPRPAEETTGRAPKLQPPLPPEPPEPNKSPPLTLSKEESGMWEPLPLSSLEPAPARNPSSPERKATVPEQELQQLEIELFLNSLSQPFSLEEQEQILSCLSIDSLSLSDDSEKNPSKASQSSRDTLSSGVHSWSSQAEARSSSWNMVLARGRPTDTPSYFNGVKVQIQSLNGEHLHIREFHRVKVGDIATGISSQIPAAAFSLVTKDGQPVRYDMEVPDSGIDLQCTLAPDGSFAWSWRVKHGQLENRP
SMILES,IC50 [1],IC50 [2],IC50 (JJN-3 cells),IC50 (KMS12-BM cells)
Cc1c(Nc2nccc(-c3cc(C#N)c4c(c3)[C@@](C)(CO)CN4)n2)cnn1C1CCOCC1 [Compound 72],2.9 nM,3 nM,102 nM,724 nM
C=CCn1nc(C)cc1Nc1nccc(-c2cc(C#N)c3c(c2)[C@@](C)(CO)CN3)n1 [Compound 73],1.9 nM,2 nM,195 nM,1320 nM
Cc1c(Nc2nccc(-c3cc(C#N)c4c(c3)[C@@](C)(CO)CN4)n2)cnn1CC1CCOCC1 [Compound 76],1.2 nM,2 nM,141 nM,741 nM
Cc1cc(Nc2nccc(-c3cc(C#N)c4c(c3)[C@@](C)(CO)CN4)n2)n(CC2CCN(C)CC2)n1 [Compound 83],10 nM,514 nM,111 nM,148 nM
CN(C)C(=O)c1cc(Nc2nccc(-c3cc(C#N)c4c(c3)C(C)(CO)CN4)n2)n(C)n1 (stereo not drawn) [Compound 86],2.6 nM,15 nM,871 nM,~3720 nM
Cc1cc(Nc2nccc(-c3cc(C#N)c4c(c3)[C@@](C)(CO)CN4)n2)n(CC(=O)N2CC(F)(F)C2)n1 [Compound 87],~6.5 nM,34 nM,3240 nM,> 10000 nM
Cc1cc(Nc2nccc(-c3cc(C#N)c4c(c3)[C@@](C)(CO)CN4)n2)n(CC(=O)N2CCCC2)n1 [Compound 88],6.8 nM,9 nM,2140 nM,> 10000 nM
Cc1cc(Nc2nccc(-c3cc(C#N)c4c(c3)[C@@](C)(CO)CN4)n2)n(CC(=O)N(C)C2CC2)n1 [Compound 89],3.7 nM,~85 nM,427 nM,> 10000 nM
CC(C)n1nc(C2CCOCC2)cc1Nc1cc(-c2cc(C#N)c3c(c2)[C@@](C)(CO)CN3)ncn1 [Compound 91],5.5 nM,13 nM,324 nM,> 10000 nM
Cc1cc(Nc2nccc(-c3cc(C#N)c4c(c3)[C@@](C)(CO)CN4)n2)n(CCCO)n1 [Compound 92],3.5 nM,7 nM,~224 nM,1510 nM
CC(C)CCn1nc(C#N)cc1Nc1nccc(-c2cc(C#N)c3c(c2)[C@@](C)(CO)CN3)n1 [Compound 93],11 nM,37 nM,182 nM,457 nM
Cc1cc(Nc2nccc(-c3cc(C#N)c4c(c3)[C@@](C)(CO)CN4)n2)nn1CCC1CC1 [Compound 95],1.6 nM,4 nM,100 nM,871 nM
Cc1cc(Nc2nccc(-c3cc(C#N)c4c(c3)[C@@](C)(CO)CN4)n2)n(CCC2CC2)n1 [Compound 96],1.6 nM,12 nM,76 nM,3800 nM
CC(C)Cc1nn(C)cc1Nc1nccc(-c2cc(C#N)c3c(c2)[C@@](C)(CO)CN3)n1 [Compound 97],2 nM,2 nM,309 nM,> 10000 nM
CC(C)Cc1c(Nc2nccc(-c3cc(C#N)c4c(c3)[C@@](C)(CO)CN4)n2)cnn1C [Compound 98],2 nM,5 nM,1020 nM,> 10000 nM
CC(C)CCc1c(Nc2nccc(-c3cc(C#N)c4c(c3)[C@@](C)(CO)CN4)n2)cnn1C [Compound 99],2.9 nM,3 nM,288 nM,9770 nM
CC(C)CCc1nn(C)cc1Nc1nccc(-c2cc(C#N)c3c(c2)[C@@](C)(CO)CN3)n1 [Compound 100],2.1 nM,~15 nM,54 nM,> 10000 nM
CC(C)CCc1nn(CCN(C)C)cc1Nc1nccc(-c2cc(C#N)c3c(c2)[C@@](C)(CO)CN3)n1 [Compound 101],6 nM,234 nM,1510 nM,5250 nM
